This note sets out measurements from a melting point compilation (Tetko et al.; mined from patent text by program, amines drawn as free bases though some values may be those of a salt).

Regarding `O=C(O)C(c1ccc(F)cc1)N1C(=O)c2ccccc2C1=O` (stereo unspecified), the melting point (as a rule, the temperature of the solid-liquid transition) is 174 to 180 °C.
Next, `CCOC(=O)c1c(-c2cccc(Cl)c2)csc1N1C(=O)c2ccccc2C1=O`: 169 °C.
For the molecule `O=C(c1cc(-c2ccc(Cl)c(Cl)c2)ccn1)N(O)Cc1ccccc1`, the melting point lay in the range of 125 to 130 °C.
Consider `Clc1ccc(N2CCN(Cc3ccc4[nH]ccc4c3)CC2)cc1`, for which the melting point is 175 to 176 °C.
Next, `COC(=O)c1ccccc1Cc1cc2cc(Cl)ccc2n1S(=O)(=O)c1ccc2c(c1)C(C)(C)CO2`: 160 °C; `Cc1c(CC(C)(C)C(=O)O)n(Cc2ccc(Cl)cc2)c2ccc(OCc3ccc4ccc(Cl)cc4n3)cc12`: 105 to 107 °C.
The molecule `c1ccc(Oc2ccc(N3CCNCC3)nc2)cc1` showed a melting point of 80.5 to 83 °C.
Next, `CS(=O)(=O)c1c(C(=O)O)ccc(Cl)c1F`: 208 to 209 °C; `Cc1cc(Oc2nn(C)c(C(F)(F)F)c2Cl)ccc1[N+](=O)[O-]`: 72 to 73.5 °C; `CCCCC(=O)OCC(=O)C12OCOC1CC1C3CCC4=CC(=O)C=CC4(C)C3C(O)CC12C` (stereo unspecified): 121 to 122 °C.
As for `COc1nc2cc(F)cc(CN=[N+]=[N-])c2nc1OC`, the figure is 75 to 78 °C; as for `COc1cc(C(=O)N2Cc3cccn3Cc3ccccc32)ccc1[N+](=O)[O-]`, 191 to 192 °C.
Regarding `CC(=O)O/N=C1\CCc2ccccc2C1=Cc1ccc(S(C)(=O)=O)cc1`, the melting point is 70 to 73 °C.
With `O=C1CCCN1C(=O)Oc1cccc(Br)c1`, the melting point lay within 95 to 96 °C.
Next, `Cn1c(CO)cc2ccccc21`: 92.8 °C.
In turn, `COc1cc(C2(C#N)CC2)ccc1OCc1ccccc1` displayed a melting point of 84 °C.
For `O=C(O)CCC(=O)c1ccc(-c2ccc(C(F)(F)F)cc2)cc1`, the melting point lay within 172 to 174 °C.
Next, `CN(C)Cc1cc2nc(C(=O)O)c(=O)[nH]c2cc1[N+](=O)[O-]`: more than 300 °C; `CCc1cc(=O)c2nc(OC)ccc2[nH]1`: 279 to 281 °C.
Next, `C#Cc1ccc2c(c1)C(CCOCCOCCOC)(CCOCCOCCOC)c1cc(C#C)ccc1-2`: 68 °C.
Molecule `c1ccc2c(C3CNCCNCCNCCNCCN3)cccc2c1` (stereo unspecified) displayed a melting point of 87 to 88 °C.
Molecule `CCOC(=O)N1CC(C)(C)CSC1=Nc1ccccc1C(C)C` came in with a melting point of 84 to 86 °C.
`O=C(O)c1sc2cc(OCc3cccnc3)ccc2c1S(=O)c1ccccc1CO` (stereo unspecified) returned a melting point of 210 °C.
As for `c1ccc(CCN2CCC(Nc3nc4ccccc4n3CCc3cccs3)CC2)cc1`, the figure is 118 °C; as for `CC(=O)NC(Cc1ccccc1)C(C)=O` (stereo unspecified), 96 to 97 °C; as for `CN(C(=O)/C=C/CSc1nc(N)cc(Cl)n1)c1ccccc1`, 152 to 154 °C.
Next, `CC1(C)CCSc2c(CC#Cc3ccc(O)cc3)cccc21`: 95 °C; `COC(=O)C1(O/N=C(\C(=O)OC(c2ccccc2)c2ccccc2)c2csc(NC(c3ccccc3)(c3ccccc3)c3ccccc3)n2)CCCCC1`: 180 to 182 °C; `O=C(O)CNC(=O)c1sc(Nc2ccccc2)c2c1CCc1cnoc1-2`: 193 to 194 °C.
Next, `CC(C)(C)c1ccc(C(O)CCCN2CCC(=C3c4ccccc4COc4ccccc43)CC2)cc1` (stereo unspecified): 160 to 161 °C; `COc1ccc(N2C(=O)C(N3C(=O)c4ccccc4C3=O)C2C(C)=Cc2ccccc2)cc1` (stereo unspecified): 105 to 107 °C.
Molecule `Cc1cc(-n2nc(C(F)(F)F)cc2-c2ccc(-c3ccco3)cc2)ccc1S(N)(=O)=O` yielded a melting point of 137 °C.
As for `CCCCCCCCCCOC(=O)C1CCC(=O)N1` (stereo unspecified), the figure is 34 to 35 °C.
Regarding `Cc1ccc(OCc2ccccc2)c2[nH]c(CCc3ccccc3)nc12`, the melting point was in the range of 203 to 204 °C.
As for `CCC(=O)OCCSCC(=O)NC/C=C\COc1cc(CN2CCCCC2)ccn1`, the figure is 99 to 106 °C; as for `CS(=O)(=O)Nc1cccc(C=C2c3ccccc3CCc3ccccc32)c1`, 66.3 °C; as for `CC(C)Cn1c(COc2ccccc2)nc2c(N)nc3ccccc3c21`, 196 to 197 °C.
`CC(C)(C)OC(=O)Nc1ccccc1NC(=O)c1nc2c(s1)CN(C(=O)OC(C)(C)C)CC2` gave a melting point of 188 °C.
As for `CC(C)(CNc1ccnc2cc(Cl)ccc12)NCc1cc(C(F)(F)F)cc(C(F)(F)F)c1`, the figure is 140 to 141 °C; as for `CC(C)(C(=O)O)c1ccc(C(=O)Nc2cn3cc(-c4cn[nH]c4)ccc3n2)cc1`, 306 to 307 °C; as for `CC(C)(C)c1nc(-c2ncn3c2COc2cc(F)ccc2-3)no1`, 133 to 135 °C.
Next, `COc1nc(N)nc(-c2ccccc2)c1-c1ccc(=O)n(C(C)C)n1`: 230 to 233 °C; `CCNC(=O)c1cnn(C)c1C(=O)Nc1ccn2nc(-c3ccccc3)nc2c1`: 253 to 255 °C.
As for `CC(C)NC(=O)N1N=C(c2ccc(N)cc2)c2cc(Cl)ccc2CC1C` (stereo unspecified), the figure is 100 to 102 °C; as for `CCOC(=O)C(C)(C)n1c(=O)[nH]c2cc(F)c(F)cc2c1=O`, 166 to 168 °C.
On to `Clc1c2ccccc2nc2c1sc1ccccc12`, for which the melting point was in the range of 158 to 159 °C.
For `CN(C)c1ccc(Cn2cnc3c(Cl)ncnc32)cc1`, the melting point was in the range of 125 to 127 °C.
As for `CC(C)(C)c1ccc(N2C[C@H](Cn3ccnn3)OC2=O)cc1`, the figure is 140 to 142 °C.
For `Cc1nc(N)nc(N)c1C=CC(C)(C)c1ccc(F)cc1`, the melting point is 164 to 168 °C.
Next, `CC(=O)c1c(CO[N+](=O)[O-])n(C(C)=O)c(=O)n1C(C)=O`: 135 to 136 °C; `Nc1cc2c(cc1Oc1ccccc1)C(=O)CCO2`: 154 to 155 °C.
Next, `Nc1ccc(NC(=O)N2CCc3cc(S(=O)(=O)N4CC(c5ccccc5)NC4=O)ccc32)cc1` (stereo unspecified): 158 to 160 °C; `O=c1[nH]c(-c2c[nH]c3ccccc23)nc2ccc(N3CCCCC3)cc12`: more than 300 °C.
Regarding `Oc1ccc(C2(c3ccc(O)cc3)c3ccccc3-c3ccccc32)cc1`, the melting point is 215 °C.
Molecule `COc1ccc(Nc2nc(O)c3sccc3n2)c(C)c1` came in with a melting point of 246 to 248 °C.
Next, `COc1cc(C(=O)NS(=O)(=O)c2ccccc2)ccc1CN1CCOc2ccc(NC(=O)OC3CCCC3)cc21`: 186 to 187 °C.
As for `CCN(CC)C(=O)n1cc(Cl)c(S(=O)(=O)c2c(C)cc(C)cc2C)n1`, the figure is 84 to 86 °C; as for `CCOC(=O)C1=C(N)Nc2ccnc(OC(C)C)c2C1c1ccccc1C(F)(F)F` (stereo unspecified), 173 to 175 °C; as for `COc1ccccc1C(=O)Nc1ccc(-n2nc(C(F)(F)F)cc2C(F)(F)F)cc1`, 100 to 102 °C.
On to `CN1C(=O)C2CCCN2C(=O)c2ccccc21` (stereo unspecified), for which the melting point was 124 to 126 °C.
`COC(=O)COc1cc2c(c(Cl)c1Cl)C(=O)C(CC#C[Si](C)(C)C)(c1ccccc1)C2` (stereo unspecified): the melting point was in the range of 126 to 127 °C.
As for `Nc1c(Cl)cc(I)cc1Cl`, the figure is 100 to 102 °C; as for `Cn1nnnc1-c1ccc2[nH]ccc2c1`, 149 to 150 °C.
In turn, `N#CCc1cc(I)cc(Cc2nc3c(F)c(F)cc(F)c3s2)c1` came in with a melting point of 127 to 130 °C.
As for `CC(=O)c1ccc2c(c1)C(C)(C)CC(=O)N2C`, the figure is 75 to 77 °C; as for `COC(=O)CCc1ccc(O)c(C(C)(C)C)c1`, 59 to 61 °C; as for `CC(=O)N(CCC(CCN1CCCCC1)(C(N)=O)c1ccccc1Cl)C(C)C` (stereo unspecified), 141 to 147 °C.
`CC(=O)Nc1nc2c(Oc3cc(-c4ccc(C(F)(F)F)cc4NCC4CCCCC4)ncn3)cccc2s1`: the melting point is 232 to 234 °C.
Molecule `Cc1noc(NS(=O)(=O)c2sccc2-c2ccccc2)c1Br` yielded a melting point of 105 to 107 °C.
`CC(C)(C)OC(=O)Nc1ccsc1C(=O)O` had a melting point of 168 to 169 °C.
As for `Cc1cccn2cc(CCl)nc12`, the figure is 115 to 117 °C; as for `CC1SC(=O)C=NC1=O` (stereo unspecified), 81 to 83 °C.
Take `Clc1c(CBr)ccc2cc(CBr)ccc12`: the melting point fell in the range of 127 to 129 °C.
Next, `O=C1NCc2c1cccc2[N+](=O)[O-]`: 235 to 237 °C; `CNc1sc(-c2cccnc2)nc1C(F)(F)F`: 152 to 157 °C.
Next, `CCOC(=O)c1cn(CCC(C)C)c2nn(C)cc2c1=O`: 105 to 106 °C.
Take `COc1ccc2c(CBr)c(Br)ccc2c1C(F)(F)F`: the melting point was 142 to 143 °C.
As for `CCOC(=O)C1=C(O)c2cc3cc(OC)ccc3n2CC1`, the figure is 157 to 160 °C.
Consider `Fc1ccc(C(F)(F)C(F)(F)c2ccccc2)c(Br)c1`, for which the melting point is 47 to 48 °C.
As for `Cc1cc(C(=O)c2cc(C(F)(F)F)cc(C(F)(F)F)c2)ccc1N(C)C`, the melting point lay in the range of 145 to 147 °C.
Next, `COc1ccc(S(=O)(=O)N(C)c2cccc(-c3ccnc4c([N+](=O)[O-])cnn34)c2)cc1`: 205 to 206 °C; `O=C(Nc1cccc2cc(Br)cnc12)c1ccc(O)c(O)c1O`: 183 to 193 °C.
Turning to `Cc1ccn2nc(S(=O)(=O)Nc3c(Cl)cccc3Cl)nc2n1`, the melting point fell in the range of 126 to 129 °C.
`CC(C)(C)OC(=O)NC(C)(C)c1ccc(C(=O)O)cc1` displayed a melting point of 205 to 208 °C.
As to `C=C(CCCCCCCCCCCCCC)C(=O)O`, the melting point fell in the range of 49.5 to 50 °C.
Next, `Cn1c([N+](=O)[O-])cnc1-c1nnc2ccc(N3CCOCC3)nn12`: 240 to 242 °C; `Oc1ccc(Sc2ccc(F)cc2)c2ccccc12`: 195 to 198 °C.
Regarding `Nc1ccc(-c2ccc(N)cc2OC(F)(F)F)c(OC(F)(F)F)c1`, the melting point fell in the range of 67.5 to 68 °C.
Next, `CC(=O)Cc1ccccc1Br`: 60 to 65 °C; `Cc1nc(C)c(C=O)c(N)n1`: 148 to 156 °C; `O=C1CC(c2ccc(O)cc2)Oc2cc(O)c(C3OC(CO)C(O)C(O)C3O)c(O)c21` (stereo unspecified): 195 to 196 °C.
